Measurements published in ChEMBL document CHEMBL1201862, “PubChem BioAssay data set” (2004).
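1) Cells in 96-well plates. 2) Compound, 48 h, 5 concentrations. 3) Linear interpolation between surrounding doses. 4) Unreached endpoint = highest concentration. GI50 = concentration required for 50% inhibition of growth.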 Calls of active or inactive are those of the source. No stated cut-off is given here; in the data, active = GI50 up to about 1.1 µM and inactive = higher.

Legend:
Experiment in all cases: DTP human tumour cell line panel, 48 h
UACC-257 = tested on: UACC-257
NCI/ADR-RES = tested on: NCI/ADR-RES
NCI-H226 = tested on: NCI-H226
MOLT-4 = tested on: MOLT-4
M14 = tested on: M14
SK-MEL-2 = tested on: SK-MEL-2
SW-620 = tested on: SW-620
Malme-3M = tested on: Malme-3M
SK-MEL-5 = tested on: SK-MEL-5
HOP-62 = tested on: HOP-62
SNB-19 = tested on: SNB-19
COLO 205 = tested on: COLO 205
NCI-H460 = tested on: NCI-H460
A549 = tested on: A549
UACC-62 = tested on: UACC-62
SF-539 = tested on: SF-539

Row | Structure (SMILES) | GI50 (UACC-257) | GI50 (NCI/ADR-RES) | GI50 (NCI-H226) | GI50 (MOLT-4) | GI50 (M14) | GI50 (SK-MEL-2) | GI50 (SW-620) | GI50 (Malme-3M) | GI50 (SK-MEL-5) | GI50 (HOP-62) | GI50 (SNB-19) | GI50 (COLO 205) | GI50 (NCI-H460) | GI50 (A549) | GI50 (UACC-62) | GI50 (SF-539)
1 | CN(C)CCNC1=Nc2ccccc2C(=S)N2CSCC12 (stereo unspecified) | > 100 µM (inactive) | > 100 µM (inactive) | > 100 µM (inactive) | > 100 µM (inactive) | > 100 µM (inactive) | > 100 µM (inactive) | > 100 µM (inactive) | > 100 µM (inactive) | > 100 µM (inactive) | > 100 µM (inactive) | > 100 µM (inactive) | > 100 µM (inactive) | > 100 µM (inactive) | > 100 µM (inactive) | > 100 µM (inactive) | –
2 | CCN(CC)C(=S)SS(=O)(=O)c1ccc(NC(C)=O)cc1 | 21.8 µM (inactive) | 28 µM (inactive) | > 59.7 µM (inactive) | – | 17.1 µM (inactive) | 41.7 µM (inactive) | 16.7 µM (inactive) | 15.9 µM (inactive) | 0.778 µM (active) | 18.1 µM (inactive) | 38.1 µM (inactive) | 25.6 µM (inactive) | 26.2 µM (inactive) | 2.21 µM (inactive) | 19.9 µM (inactive) | –
3 | Cc1ccc(C(=O)/C(C#N)=C/Nc2c(C)n(C)n(-c3ccccc3)c2=O)cc1 | > 100 µM (inactive) | – | > 100 µM (inactive) | > 100 µM (inactive) | > 100 µM (inactive) | > 100 µM (inactive) | > 100 µM (inactive) | > 100 µM (inactive) | > 100 µM (inactive) | > 100 µM (inactive) | > 100 µM (inactive) | > 100 µM (inactive) | > 100 µM (inactive) | > 100 µM (inactive) | > 100 µM (inactive) | > 100 µM (inactive)
4 | Cc1ccc(S(=O)(=O)NC(=O)Nc2ccc(C(=O)O)cc2)cc1 | > 100 µM (inactive) | > 100 µM (inactive) | – | > 100 µM (inactive) | > 100 µM (inactive) | > 100 µM (inactive) | > 100 µM (inactive) | > 100 µM (inactive) | > 100 µM (inactive) | > 100 µM (inactive) | > 100 µM (inactive) | > 100 µM (inactive) | > 100 µM (inactive) | > 100 µM (inactive) | > 100 µM (inactive) | > 100 µM (inactive)
5 | COC(=O)/C(=C\C(=O)c1ccc(Br)cc1)NN=C(c1ccccc1)c1ccccc1 | > 10 µM (inactive) | – | – | > 10 µM (inactive) | > 10 µM (inactive) | – | > 10 µM (inactive) | > 10 µM (inactive) | > 10 µM (inactive) | > 10 µM (inactive) | – | > 10 µM (inactive) | – | > 10 µM (inactive) | > 10 µM (inactive) | –
6 | CC(C)C(N)C(=O)NC(CCC(=O)NCCCCC(N)C(=O)NCCCNc1ccc([N+](=O)[O-])c2[nH]c3ccccc3c(=O)c12)C(N)=O (stereo unspecified) | > 100 µM (inactive) | 43 µM (inactive) | 50.9 µM (inactive) | – | 75.3 µM (inactive) | 91.6 µM (inactive) | 41.6 µM (inactive) | – | > 100 µM (inactive) | 92.3 µM (inactive) | 35.2 µM (inactive) | 68.9 µM (inactive) | 12.5 µM (inactive) | 27.3 µM (inactive) | 25.2 µM (inactive) | –
7 | Cc1cc(C#N)c(Nc2c(C)cccc2[N+](=O)[O-])s1 | 39.3 µM (inactive) | 25.4 µM (inactive) | > 100 µM (inactive) | 92 µM (inactive) | > 100 µM (inactive) | – | > 100 µM (inactive) | 40.2 µM (inactive) | – | 25.4 µM (inactive) | 68.2 µM (inactive) | > 100 µM (inactive) | 76.4 µM (inactive) | 46.3 µM (inactive) | 37.9 µM (inactive) | 43.2 µM (inactive)
8 | Clc1ccc(-c2nc(-c3ccc(Cl)cc3)[s+]s2)cc1 | 55.2 µM (inactive) | 39.6 µM (inactive) | – | 26.6 µM (inactive) | > 100 µM (inactive) | > 100 µM (inactive) | 55.8 µM (inactive) | 18.7 µM (inactive) | 47.8 µM (inactive) | 34 µM (inactive) | 50.5 µM (inactive) | > 100 µM (inactive) | 37.6 µM (inactive) | 39.9 µM (inactive) | 52.2 µM (inactive) | 29.7 µM (inactive)
9 | C[N+](C)(CCNC(=O)c1cccc2cc3ccccc3nc12)Cc1ccc([N+](=O)[O-])s1 | > 25 µM (inactive) | > 25 µM (inactive) | > 25 µM (inactive) | > 25 µM (inactive) | > 25 µM (inactive) | > 25 µM (inactive) | > 25 µM (inactive) | > 25 µM (inactive) | > 25 µM (inactive) | > 25 µM (inactive) | – | > 25 µM (inactive) | – | > 25 µM (inactive) | > 25 µM (inactive) | –
10 | COC(=O)/C=C1/OC(c2ccccc2)=C(Br)C1=O | 73.3 µM (inactive) | – | 68.9 µM (inactive) | 28.5 µM (inactive) | 44.7 µM (inactive) | – | 18.4 µM (inactive) | 49 µM (inactive) | 20.3 µM (inactive) | > 100 µM (inactive) | 79.1 µM (inactive) | > 100 µM (inactive) | 35.9 µM (inactive) | – | 20 µM (inactive) | 45.9 µM (inactive)
11 | O=C1NCC2(CCNCC2)N1 | > 100 µM (inactive) | > 100 µM (inactive) | > 100 µM (inactive) | > 100 µM (inactive) | > 100 µM (inactive) | – | > 100 µM (inactive) | > 100 µM (inactive) | > 100 µM (inactive) | > 100 µM (inactive) | > 100 µM (inactive) | > 100 µM (inactive) | > 100 µM (inactive) | > 100 µM (inactive) | > 100 µM (inactive) | > 100 µM (inactive)
12 | Cc1ccc(C(=O)Nc2ccc(S(=O)(=O)O)c3cc(S(=O)(=O)O)cc(S(=O)(=O)O)c23)cc1NC(=S)Nc1cc(C(=O)Nc2ccc(S(=O)(=O)O)c3cc(S(=O)(=O)O)cc(S(=O)(=O)O)c23)ccc1C | > 75 µM (inactive) | – | > 75 µM (inactive) | > 75 µM (inactive) | > 75 µM (inactive) | > 75 µM (inactive) | > 75 µM (inactive) | > 75 µM (inactive) | > 75 µM (inactive) | > 75 µM (inactive) | > 75 µM (inactive) | – | > 75 µM (inactive) | > 75 µM (inactive) | > 75 µM (inactive) | –
13 | C=CCC1(C(=O)OC)CCC/C(=N\O)C1 (stereo unspecified) | > 10 µM (inactive) | > 10 µM (inactive) | – | > 10 µM (inactive) | > 10 µM (inactive) | – | > 10 µM (inactive) | > 10 µM (inactive) | > 10 µM (inactive) | > 10 µM (inactive) | > 10 µM (inactive) | > 10 µM (inactive) | – | > 10 µM (inactive) | > 10 µM (inactive) | > 10 µM (inactive)
14 | OCC(O)C(O)C(O)C(/C=N\Nc1ncnc2ccc(Br)cc12)=N/Nc1ncnc2ccc(Br)cc12 (stereo unspecified) | 7.48 µM (inactive) | – | 5.58 µM (inactive) | 2.62 µM (inactive) | 9.48 µM (inactive) | 3.33 µM (inactive) | 6.62 µM (inactive) | 3.53 µM (inactive) | 3.37 µM (inactive) | 7.16 µM (inactive) | 51.5 µM (inactive) | 3.31 µM (inactive) | – | 23.2 µM (inactive) | – | 8.3 µM (inactive)
